Experimental data: patent US20220233555A1, “Improved administration of glycylcyclines by inhalation” (Stichting Radboud universitair medisch centrum, priority 2019, published 2022)

Tests used:
[1] = test system: M. abscessus and M. chelonae infections; conditions: cited from earlier work
[2] = in vivo; cited from earlier work
[3] = test system: M. abscessus; conditions: cited from earlier work
[4] = cited from earlier work
[5] = rat, in vivo; cited from earlier work
[6] = test system: M. abscessus; assay: Intrapulmonary aerosol M. abscessus infection in GM-CSF KO mice, lung CFU determination; assay type: in vivo, Mycobacterium abscessus; conditions: for Log10 CFU count After 4 weeks: GM-CSF KO mice, lungs, 5 days a week for 4 weeks, at start 4.80, untreated 3.93
[7] = in vivo, cited from earlier work

Compound: CN(C)c1cc(NC(=O)CNC(C)(C)C)c(O)c2c1C[C@H]1C[C@H]3[C@H](N(C)C)C(O)=C(C(N)=O)C(=O)[C@@]3(O)C(O)=C1C2=O [tigecycline]
- cases with adverse events reported ([1]; human, in vivo, iv): about 90%
- patients with serious adverse events ([1]; human, in vivo, iv): 29 out of 52
- patients who stopped tigecycline therapy early because of adverse events ([1]; human, in vivo): 27%
- patients with improvement ([1]; intravenous 100 mg then 50 mg every 12 h, part of a multidrug regimen): about 60%
- dose at which gastrointestinal adverse events were dose limiting [2]: 300 mg
- nausea, share of tigecycline recipients [2]: 48.5%
- vomiting, share of tigecycline recipients [2]: 29.4%
- log kill of M. abscessus ([3]; at 200 mg/day, short-term inhibitory effect): 1 log kill
- maximum microbial kill ([3]; at higher doses): 1.37 log10 CFU/mL
- Protein binding [4]: approximately 68%
- penetration into tissues [5]: good penetration into tissues
- bacterial colonies after culturing lung tissue ([6]; 2.5 mg cohorts, 9 out of 10 mice, 4 weeks): no bacterial colonies were visible
- log 10 CFU count of the mouse with incomplete response ([6]; 2.5 mg cohorts, one mouse with abscess formation, 4 weeks): 0.5 log 10 CFU
- Log10 CFU count After 4 weeks ([6]; inhaled 0.25 mg/dose): 3.28 Log10 CFU
- Log10 CFU count After 4 weeks ([6]; inhaled 1.25 mg/dose): 0.695 Log10 CFU
- Log10 CFU count After 4 weeks ([6]; inhaled 2.5 mg/dose): 0.50 Log10 CFU
- half-life ([7]; human): 36 h
- excreted unchanged in the urine [7]: not more than 15%
- volume of distribution [7]: > 10 L/kg
